The values that follow come from patent publication US11931347B2, “Method of screening for agents for differentiating stem cells” (MINERVA BIOTECHNOLOGIES CORPORATION, priority 2015, dated 2024).

Assay [1] has as its system PC-3 MUC1* negative, NME7AB positive prostate cancer cells. As to the kind of experiment: cancer cell proliferation assay (Calcein). It counts as cell-based. Conditions: 96 hours (FIG. 111). How it is done:
(§1) Small molecule inhibition of cancer cell proliferation studies were also performed on several cancer sub-types. […] The small molecules of the invention had the most robust effect on T47D breast cancer cells, which are highly positive for MUC1* growth factor receptor, and its activating ligands NME7AB and NME7-X1. […] For the cancer cell proliferation experiment cancer cells were plated at constant densities (6000 cells/well) into a 96-well White-walled/Clear-bottom Tissue Culture Treated plate (Corning Incorporated, Big Flats, N.Y.). Small molecule analogs are added at T=24 hours in media with 2% FBS. Following the addition of the small molecules, the cells remain untouched for 120 hours with visual confirmations/inspections at 24, 48, 72 and 96 hours post plating. At the 120 hour mark a calcein fluorescence assay (Thermo Fisher Scientific, Waltham, Mass.) is performed on the plate. Calcein fluorescence (final concentration 0.5 uM) is used to assess cell viability. Cancer cell fluorescence is measured in a TECAN SAFIRE^2 spectrophotometer plate reader. The plate is then imaged using an Olympus IX71 fluorescence imaging microscope and montage of the resulting images are assembled using ImageJ.

Assay [2] concerns DU145 MUC1* positive prostate cancer cells. Nature of the assay: cancer cell proliferation assay (Calcein). In kind it is cell-based. The settings on record: 96 hours (FIG. 109). How it is done:
as §1

The subject of assay [3] is MDA-MB-453 breast cancer cells. As to the kind of experiment: cancer cell proliferation assay (Calcein). Conditions: 96 hours (FIG. 110). In kind it is cell-based. How it is done:
as §1

Assay [4] relates to T47D breast cancer cells. Nature of the assay: cancer cell migration, invasion assay (Platypus/Oris system). Conditions: T47D, 120 hours. It counts as cell-based, human. Here is the method:
We then tested an expanded panel of agents, including agents known to inhibit cancer growth or migration (FIG. 17) (Horm et al., 2012; Meng & Yue, 2014; Zhen et al., 2014), which is characteristic of aggressive or metastatic cancers. We also synthesized a series of novel small molecules, tested them in the stem cell drug screening assay, and then synthesized analogs of the best hits. These small molecules are pictured in FIGS. 18-27. Both the known compounds and the novel compounds were tested in the stem cell drug screening assay. The effects of the small molecules on naïve versus primed state stem cells are shown in the photographs of FIGS. 29-72. The small molecules pictured in FIGS. 17-27 and the biologicals were also tested in a cancer cell migration assay. A structure activity relationship table is seen in FIG. 28. Potent cancer cell migration is characteristic of cancer cell invasion of other tissues and of metastasis. Typical migration assays involve coating a cell culture plate with fibronectin, collagen or the like, plating cancer cells and making a scar across through the cells and measuring the time it takes for the cancer cells to invade the void space. An alternative approach that gives more reliable data is the Platypus System which is a special multi-well cell culture plate with a juxtaposed set of plugs that block off a circle in the center of each well. Cancer cells are plated while the plugs are in place, then they are removed after the cells attach to the plate surface. […] A bar graph summarizing the results of the known anti-migration compounds compared to the anti-MUC1* Fab E6 and the first few small molecules synthesized is shown in FIG. 73. The effect of two novel small molecules MN1186 and MN1194, compared to the known anti-migration molecule SU11274, is shown in FIG. 75A-75U. FIG. 75V is a graph showing the measured inhibition of cancer cell migration at time 0, 24 hours or 48 hours for a number of compounds. […] FIG. 75X is a graph showing how IC50's of the small molecules of the invention were measured and calculated.
Percent inhibition of cancer cell migration was performed in a wound healing assay. The Percent area that the invading cancer cells occupied, in the presence of a drug candidate compared to the controls, was quantified by Image J cell software which enables cell counting from photographs. IC50's were calculated by performing migration experiments at several compound concentrations and then applying Hill's equation. Inhibition of cancer cell proliferation was quantified by automated cell counting in the presence or absence of a drug candidate. Here, the potency of the drug candidate was simply scored 4 for the highest degree of inhibition and 0 for the lowest. […] The effect of each drug candidate was scored 0-4, with 4 being the highest in inhibiting cell proliferation (FIG. 28).
For the cancer cell migration experiment cancer cells were plated at varying densities into an Oris Cell Migration Assay Collagen-1 coated 96-well plate (Platypus Technologies LLC, Madison, Wis.). The Collagen-1 coated 96-well plate incorporates a specific vacuum plug which attaches to the bottom of each well, creating an area in which the cells cannot grow into. Once the cells have been plated at high densities into each well, they are allotted an 18-24 hour time period to attach to the bottom of the wells. Post-24 hour plugs are removed from the plate and then small molecule analogs are added to the wells. Images are taken of each well and represent time 0 (T=0) for each well. Images are taken of the wells at the 24, 48, 72, 96 and 120 hour time points. Data analysis is conducted using the images taken at these specific time point. Images are imported into ImageJ (Rasband, W. S., ImageJ, U. S. National Institutes of Health, Bethesda, Md., USA, http://imagej.nih.gov/ij/, 1997-2016.) and the area remaining free of cells is calculated. […]

The test system of assay [5] is T47D breast cancer cells. As to the kind of experiment: cancer cell proliferation assay (Calcein live cell stain). In kind it is cell-based, human. The settings on record: for inhibition of growth of T47D cells: live cell Calcein stain, 96 hours (FIG. 113). Here is the method:
These analogs of MN1194 and 1186 were also tested in a cell growth assay (FIGS. 107A1-107H6 and FIG. 108A1-108H6, respectively). In this experiment, both parent compound and analogs thereof were added to normal cell culture media to final concentrations of 40 uM, 20 uM, 10 uM, 5 uM or 2.5 uM. For comparison, previously known cancer cell migration inhibitors SU11274 and MN1204 were included in the same experiment. […] Relative cell proliferation is quantified on a standard plate reader that reads the fluorescence of the Calcein that is taken up by live cells.
Small molecule inhibition of cancer cell proliferation studies were also performed on several cancer sub-types. […] The small molecules of the invention had the most robust effect on T47D breast cancer cells, which are highly positive for MUC1* growth factor receptor, and its activating ligands NME7AB and NME7-X1.
For the cancer cell proliferation experiment cancer cells were plated at constant densities (6000 cells/well) into a 96-well White-walled/Clear-bottom Tissue Culture Treated plate (Corning Incorporated, Big Flats, N.Y.). Small molecule analogs are added at T=24 hours in media with 2% FBS. Following the addition of the small molecules, the cells remain untouched for 120 hours with visual confirmations/inspections at 24, 48, 72 and 96 hours post plating. At the 120 hour mark a calcein fluorescence assay (Thermo Fisher Scientific, Waltham, Mass.) is performed on the plate. Calcein fluorescence (final concentration 0.5 uM) is used to assess cell viability. Cancer cell fluorescence is measured in a TECAN SAFIRE^2 spectrophotometer plate reader. The plate is then imaged using an Olympus IX71 fluorescence imaging microscope and montage of the resulting images are assembled using ImageJ.

In assay [6] the test system is human primed state stem cells. Nature of the assay: stem cell drug screening assay on primed state stem cells. It counts as cell-based. Conditions: 6 uM, 3 days. How it is done: (§2) The stem cell screening assay, was performed in both the presence and absence of the stem cell growth factors: NME7AB for growing naïve stem cells or FGF for growing primed stem cells. If the cognate growth factor was present, then the biological or small molecule would have to compete away the growth factor to get an effect. Therefore, we expected to see more of an effect when the growth factor, FGF for primed stem cells or NME7AB or NME1 dimers for naïve stem cells, was absent. The effect of the compounds on stem cells was visually determined and compounds were ranked 0-4, with 4 being the greatest effect and 0 being no observable effect. The major effect that was observed was a change from pluripotent stem cell morphology, which is a cobblestone pattern of small round cells with a large nucleus to cytoplasm ratio, to that of differentiating stem cells, which are elongated, large and flattened cells with a smaller nucleus to cytoplasm ratio. […] The compounds were added to a final concentration of 6 uM to either naïve state stem cells or primed state stem cells. In this particular case, the naïve state stem cells were maintained in a naïve state by culturing in a media containing NME7AB or NME1 dimers. However, other methods such as 2i and 5i (Silva et al., 2008, Nichols and Smith, 2009, Theunissen et al., 2014)] can be used to maintain stem cells in a more naïve state. In this case primed state stem cells were cultured in bFGF over a layer of MEFs, although it is known that any bFGF containing media will maintain stem cells in the primed state.
Stem cells whether embryonic or induced pluripotent stem (iPS) cells were cultured in a minimal, serum-free media that contained human recombinant bFGF at a concentration of 8 ng/mL. The stem cells were plated over a layer of inactivated mouse embryonic fibroblasts, aka MEFs, which secrete additional uncharacterized growth factors and cytokines.
(§3) Human naïve state and primed stem cells were cultured in parallel for at least 5 passages to guarantee normal differentiation-free growth. The stem cells were plated in 12-well cell culture plates with 50,000 cells per well. Cells were cultured in their respective media, either bFGF media or NME7AB media for 24 hours. Media was then removed and replaced with media devoid of bFGF or NME7AB, when indicated. Agents being tested for their ability to induce differentiation of naïve stem cells were added to the media at the concentrations indicated. After 72 hours, photographs were taken see FIGS. 1-10.
(§4) Human naïve state and primed stem cells were cultured in parallel for at least 5 passages to guarantee normal differentiation-free growth. The stem cells were plated in 12-well cell culture plates with 50,000 cells per well. Cells were cultured in their respective media, either bFGF media or NME7AB media for 24 hours. Media was then removed and replaced with media devoid of bFGF or NME7AB. […] Media was changed after 48 hours and replaced with fresh media containing the BRD4 inhibitors. After 4 days the experiment was stopped. Photographs were taken and cell pellets collected for further analysis, see FIGS. 11-16.

For assay [7], the system named is human naïve state stem cells. Nature of the assay: stem cell drug screening assay on naïve state stem cells. It counts as cell-based. The settings on record: 6 uM, 3 days. Here is the method: as §2
Stem cells whether embryonic or induced pluripotent stem (iPS) cells were cultured in a minimal, serum-free media that contained human recombinant NME7AB at a concentration of 2-32 nM wherein 4-8 nM is preferred and 4 nM is more preferred. To facilitate surface attachment, cell culture plates were coated with an anti-MUC1* monoclonal antibody called MN-C3 or C3 or MN-C8 at a concentration of 2-100 ug/mL coating solution, wherein 3-50 ug/mL is preferred and 6-12.5 ug/mL is more preferred. In these experiments, 12.5 ug/mL of MN-C3 was used. Antibody coated plates were incubated at 4 degrees C. overnight prior to plating stem cells. A Rho kinase I inhibitor was added to enhance surface attachment. In some cases, NME7AB was substituted with human recombinant NME1 dimers which also induce stem cells to revert to a naïve-like state.
as §3, §4

As for `CC(C)CC1c2[nH]c3cc(F)ccc3c2CCN1C(=O)CNC(=O)OC(C)(C)C` (centres unmarked) [MN1227], the “inhibition of growth of PC-3 cells” value in assay [1] is listed as “inhibited the growth”. In addition, the “inhibition of growth of DU145 cells” value in assay [2] is listed as “inhibited the growth”. For the same molecule, the “inhibition of growth of MDA-MB-453 cells” value in assay [3] is given as “inhibited the growth”. For the same molecule, in the assay on T47D breast cancer cells [4], the “inhibition of cancer cell migration” value is on record as “improvements over MN1186”. Also, in the assay on T47D breast cancer cells [5] (T47D, Calcein assay after 120 hours, 40-2.5 uM), the “inhibition of cancer cell proliferation relative to parent compounds” value is “inhibit cancer cell proliferation better than parent compounds”. In addition, the “inhibition of growth of T47D cells” value in the assay with T47D breast cancer cells [5] is reported as “severely inhibited growth”.
Take `CCCCNC(=O)N1CCc2c([nH]c3ccccc23)C1C(C)c1ccccc1` (centres unmarked) [MN1130]: in assay [6], the “effect on primed stem cell pluripotency, growth or differentiation (visually determined)” value is “modest effect”. Moreover, in assay [1], the “inhibition of growth of PC-3 cells” value is “inhibited the growth”. Besides, in assay [2], the “inhibition of growth of DU145 cells” value is “inhibited the growth”. For the same molecule, in assay [3], the “inhibition of growth of MDA-MB-453 cells” value was “inhibited the growth”. In addition, in assay [7], the “effect on naïve stem cell pluripotency, growth or differentiation (visually determined)” value was “induced differentiation”. Also, in the assay with T47D breast cancer cells [5], the “inhibition of growth of T47D cells” value is “severely inhibited growth”.
Turning to `CC(C)CC1c2[nH]c3ccccc3c2CCN1C(=O)C1CCC(CNC(=O)OC(C)(C)C)CC1` (centres unmarked) [MN1246], the “inhibition of growth of PC-3 cells” value in assay [1] is recorded as “inhibited the growth”. Further, the “inhibition of growth of DU145 cells” value in assay [2] is listed as “inhibited the growth”. The “inhibition of growth of MDA-MB-453 cells” value in assay [3] is on record as “inhibited the growth”. Also, in the assay on T47D breast cancer cells [5], the “inhibition of growth of T47D cells” value is listed as “severely inhibited growth”.
For `CC(C)CC1c2[nH]c3ccccc3c2CCN1C(=O)CCc1ccccc1` (centres unmarked) [MN1133], in assay [1], the “inhibition of growth of PC-3 cells” value was “inhibited the growth”. Moreover, the “inhibition of growth of DU145 cells” value in assay [2] is “inhibited the growth”. The “inhibition of growth of MDA-MB-453 cells” value in assay [3] is “inhibited the growth”. Moreover, the “inhibition of growth of T47D cells” value in the assay with T47D breast cancer cells [5] was “severely inhibited growth”.
